Assay results taken from US5587478A, “Sapphyrin multimers” (Board of Regents, The University of Texas System, priority 1995, dated 1996).
“Also recorded” adds a separate entry of the source. Like-named read-outs stand apart in the source and are kept apart here.

Columns and labels:
[1] = diprotonated form; acidic pH; cited from earlier work
[2] = Binding constant titration in methanol
Source text: (§1) Quantitative assessments of dicarboxylate binding efficacy in methanol were made using standard spectroscopic techniques. In general, ^1 H NMR methods were employed, with the observed changes in the ^1 H NMR chemical shifts of the aromatic protons of the carboxyl-containing substrate (kept constant in the mM concentration range) being monitored as a function of increased receptor concentration. In some instances, well-resolved shifts could not be observed in the appropriate ^1 H NMR spectra. Here, either visible spectroscopic titration procedures were used or deuterated substrates were employed such that the binding process could be followed by ^2 H NMR.
(§2) More specifically, binding studies were effected by means of ^1 H NMR (General Electric QE-300), ^2 H NMR (Bruker AM-500) and Vis (Beckman DU 640) titrations and were carried out at 293 K. using methanol as the solvent. Methanol-d4 was used for the ^1 HNMR titrations and non-deuterated methanol was used for the ^2 H NMR analyses. For both sets of NMR titrations, the substrate concentration was held constant and the receptor concentration varied. The change in the chemical shifts of the aromatic hydrogen/deuterium atoms of the substrates were then followed and used as a way of monitoring, in a relative way, the concentration of the bound and unbound species. […]

[3] = Binding constant titration in methanol; conditions: for Ka: methanol, 293 K, 23 as bis HCl salt
Source text: as §1
(§3) More specifically, binding studies were effected by means of ^1 H NMR (General Electric QE-300), ^2 H NMR (Bruker AM-500) and Vis (Beckman DU 640) titrations and were carried out at 293 K. using methanol as the solvent. Methanol-d4 was used for the ^1 HNMR titrations and non-deuterated methanol was used for the ^2 H NMR analyses. For both sets of NMR titrations, the substrate concentration was held constant and the receptor concentration varied. The change in the chemical shifts of the aromatic hydrogen/deuterium atoms of the substrates were then followed and used as a way of monitoring, in a relative way, the concentration of the bound and unbound species. For the Vis titrations, the receptor concentration was held constant and the substrate concentration varied. There, the change in absorption of the Soret-like band of receptor 23 was followed. Receptor 23 was used in the form of its bis-HCl salt, 23-2HCl. This salt was prepared by washing a dichloromethane solution of 23 (in its free-base form) three times with independent portions of an aqueous pH 6 solution of HCl, followed by 1) drying over Na2 SO4, 2) evaporative removal of solvent and 3) drying in vacuo. Substrates were used as their trimethylammonium salts. They were prepared by dissolving the relevant dicarboxylic acid in methanol and then bubbling with trimethylamine gas for 10 min. […]

[4] = Binding constant titration in methanol; remark: listed apart in the source
Source text: as §1, §2

[5] = Carboxylate binding, summary statements
Source text: as §1, §2

[6] = U-tube model membrane transport, 5-nitroisophthalate; conditions: carrier 0.1 mM in dichloromethane; source 10 mM each of three acids, pH 7.2; receiving pH 7; 24-26 °C; error ±10%
Description: (§4) To illustrate the binding of dicarboxylate anions by sapphyrin dimers, transport studies were carried out utilizing a standard U-tube model membrane system. Transport experiments were performed using a glass U-tube at 24°-26° C. Conditions: Source phase: 1 mL of a 1:1:1 ratio of 4-nitrophthalic acid, 5-nitroisophthalic acid and nitroterephthalic acid (10 mM of each) at pH 7.2 (adjusted by the addition of NaOH). Membrane (6 mL); carrier (1a or 23): 0.1 mM in dichloromethane. Receiving phase: 1 mL of H2 O, pH 7.0. The release of the dicarboxylate dianions into the receiving phase was monitored as a function of time via HPLC product analysis achieved using adenosine or uridine as the internal standards. In all cases, control experiments were performed in the absence of carrier. Error is within ±10%.

[7] = U-tube model membrane transport of dicarboxylates, summary; conditions: neutral pH
Description: as §4

[8] = Binding constant titration in methanol; remark: listed apart in the source
Source text: as §1, §2

[9] = U-tube model membrane transport, 4-nitrophthalate; conditions: carrier 0.1 mM in dichloromethane; source 10 mM each of three acids, pH 7.2; receiving pH 7; 24-26 °C; error ±10%
Description: as §4

[10] = Binding constant titration in methanol; conditions: for Kd: methanol, 293 K, 23 as bis HCl salt, read-out: K1, K2 (converted)
Source text: as §1, §3

[11] = U-tube model membrane transport, nitroterephthalate
Description: as §4

[12] = Binding constant titration in methanol; remark: listed apart in the source
Source text: as §1, §2

[13] = Binding constant titration in methanol; remark: listed apart in the source
Source text: as §1, §2

[14] = Binding constant titration in methanol; conditions: for Kd: binding constant, 1H NMR, methanol, 293 K, 23 as bis HCl salt
Source text: as §1, §3

[15] = Protonation state of sapphyrin; assay type: physicochemical
DNA = DNA binding of unmodified sapphyrin
[16] = Vis spectroscopy, methanol, 293 K, 23 as bis HCl salt
[17] = relative to the worst bound substrate, oxalate

In the case of `CCC1=C(C)c2cc3[nH]c(c(C)c3CC)c3[nH]c(cc4nc(cc5[nH]c(cc1n2)c(CC)c5CC)C(CC)=C4C)c(CC)c3C` [3,8,12,13,17,22-hexaethyl-2,7,18,23-tetramethylsapphyrin], the “carrier for through-membrane transport” value [1] is given as “efficient carrier”.
With `CCC1=C(C)c2cc3[nH]c(c(C)c3CC)c3[nH]c(cc4nc(cc5[nH]c(cc1n2)c(C)c5CCC(=O)NCCCNC(=O)CCc1c(C)c2cc5nc(cc6[nH]c(c(C)c6CC)c6[nH]c(cc7nc(cc1[nH]2)C(CC)=C7C)c(CC)c6C)C(C)=C5CC)C(CC)=C4C)c(CC)c3C` [Compound 23, 1,3-bis[12-aminocarbonylethyl-(3,8,17,22-tetraethyl-2,7,13,18,23-pentamethylsapphyrin)]propane] the Ka [2, 16] was 450 M⁻¹, the Selectivity [2, 17] was 1.7 and the Ka ([3]; Vis spectroscopy) was 2 500 M^-1. The Ka ([3]; first value, footnote printed c) was 2 400 M^-1, the Selectivity [3, 17] was 9.4 and the Ka [4, 16] was 9 100 M^-1. For the same compound, the Selectivity [4, 17] was 35.0, the “Affinity and selectivity for carboxylates (in words)” value [5] was “little affinity for monocarboxylate-derived substrates; also recorded: very good affinities for certain dicarboxylates; also recorded: preference for linear over bent substrates and aromatic over aliphatic substrates” and the “Initial rate of transport kT, meta” value [6] was 2.926 10^-10 mol/cm^2 · h. For the same compound, the “Carrier efficacy for dicarboxylates” value [7] was “acts as an efficient carrier for a range of dicarboxylates”, the Ka ([8]; 2H NMR, methanol, 293 K, 23 as bis HCl salt) was 4 600 M^-1 and the Selectivity [8, 17] was 17.7. The “Initial rate of transport kT, ortho” value [9] was 2.190 10^-10 mol/cm^2 · h, the Kd ([10]; 1H NMR) was 725 µM and the Kd ([10]; 2H NMR) was 654 µM. The Selectivity [10, 17] was 5.6, the “Initial rate of transport kT, para” value ([11]; carrier 0.1 mM in dichloromethane, source 10 mM each of three acids, pH 7.2, receiving pH 7, 24-26 °C, error ±10%) was 6.803 10^-10 mol/cm^2 · h and the “Transport rate of nitroterephthalate relative to 4-nitrophthalate” value ([11]; direct competition experiments) was “three times faster”. For the same compound, the Ka [12, 16] was 5 300 M^-1, the Selectivity [12, 17] was 20.4 and the Ka [13, 16] was 260 M⁻¹. It also gave a Selectivity [13, 17] of 1, a Kd ([14]; read-out: K1 (converted)) of 3230 µM and a Kd ([14]; read-out: K2 (converted)) of 3570 µM. The Selectivity [14, 17] was 1.2.
In the case of `CCc1c(CC)c2cc3nc(cc4[nH]c(c(C)c4CC)c4[nH]c(cc5nc(cc1[nH]2)C(CCC(=O)N(CCO)CCO)=C5C)c(CC)c4C)C(C)=C3CCC(=O)N(CCO)CCO` [sapphyrin], the “pH range in which sapphyrin remains monoprotonated” value [15] is reported as 3.5-10 pH, the “mode of DNA binding” value (DNA) is reported as “not intercalation or groove binding” and the Kd (DNA; unmodified sapphyrin, read-out: binding constant for DNA) is reported as roughly 1 µM.
